{"source": "ChEMBL document CHEMBL1157512", "about": "“Anti-HIV-1 protease activity of lanostane triterpenes from the vietnamese mushroom Ganoderma colossum” (J Nat Prod, 2008)", "data": [{"target": "Protease (Human immunodeficiency virus 1, UniProt Q9YQ12)", "sequence (Q9YQ12 whole entry)": "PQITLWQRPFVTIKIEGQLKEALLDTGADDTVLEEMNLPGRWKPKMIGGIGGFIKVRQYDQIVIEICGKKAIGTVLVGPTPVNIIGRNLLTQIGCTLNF", "test": "Inhibition of recombinant HIV1 protease", "units": {"IC50": "µM"}, "values": [{"smiles": "CC(=O)OC[C@]12CC[C@H](O)C(C)(C)[C@@H]1CCC1=C2CC[C@]2(C)[C@@H]([C@H](C)C(O)C/C=C(/C)CO)CC[C@@]12C", "note": "(stereo partly drawn) [COLOSSOLACTONE A]", "IC50": 75.5}, {"smiles": "CC(=O)O[C@@H]1C[C@H]([C@H](C)[C@H]2CC=C(C)C(=O)O2)[C@@]2(C)CCC3=C(CC[C@@H]4C(=C3)C=CC(=O)OC4(C)C)[C@]12C", "note": "[COLOSSOLACTONE E]", "IC50": 15.3}, {"smiles": "CC(=O)O[C@@H]1C[C@H]([C@H](C)[C@H]2CC=C(C)C(=O)O2)[C@@]2(C)CCC3=C(CC[C@]4(O)C(=C3)C=CC(=O)OC4(C)C)[C@]12C", "note": "[COLOSSOLACTONE G]", "IC50": 9.28}, {"smiles": "CC(=O)O[C@@H]1C[C@H]([C@H](C)[C@@H]2OC(=O)C(C)=C[C@H]2O)[C@@]2(C)CCC3=C(CC[C@@H]4C(=C3)C=CC(=O)OC4(C)C)[C@]12C", "note": "[COLOSSOLACTONE VIII]", "IC50": 58.3}, {"smiles": "COC(=O)CC[C@]1(COC(C)=O)C2=C(CC[C@H]1C(C)(C)O)[C@]1(C)CC[C@H]([C@H](C)[C@H]3CC=C(C)C(=O)O3)[C@@]1(C)CC2", "note": "[COLOSSOLACTONE VII]", "IC50": 24.7}, {"smiles": "COC(=O)CC[C@]1(COC(C)=O)C2=CC[C@]3(C)[C@@H]([C@H](C)[C@@H](C/C=C(/C)C(=O)O)OC(C)=O)CC[C@@]3(C)C2=CC[C@H]1C(C)(C)O", "note": "[COLOSSOLACTONE VI]", "IC50": "> 162"}, {"smiles": "COC(=O)CC[C@]1(COC(C)=O)C2=C(CC[C@H]1C(C)(C)O)[C@]1(C)CC[C@H]([C@H](C)[C@@H](C/C=C(/C)C(=O)O)OC(C)=O)[C@@]1(C)CC2", "note": "[COLOSSOLACTONE V]", "IC50": 14.5}, {"smiles": "CC1=CC[C@H]([C@@H](C)[C@H]2CC[C@@]3(C)C4=C(C=C5C=CC(=O)OC(C)(C)[C@@H]5CC4)CC[C@]23C)OC1=O", "note": "[SCHISANLACTONE A]", "IC50": 10.8}]}]}
